Results published in ChEMBL document CHEMBL1201862, “PubChem BioAssay data set” (2004).
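Values below derive from 48-hour exposures of cells grown in 96-well plates, with endpoints linearly interpolated between the two concentrations bracketing the appropriate inhibition level. GI50 is the concentration that inhibits growth by half.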 Calls of active or inactive are those of the source. No stated cut-off is given here; in the data, active = GI50 up to about 1.1 µM and inactive = higher.

What was measured:
Assay in all cases: DTP human tumour cell line panel, 48 h
786-0 = system: 786-0
CCRF-CEM = system: CCRF-CEM
COLO 205 = system: COLO 205
HL-60 = system: HL-60
HT-29 = system: HT-29
IGROV-1 = system: IGROV-1
K562 = system: K562
NCI-H226 = system: NCI-H226
NCI-H460 = system: NCI-H460
SF-268 = system: SF-268
SN12C = system: SN12C
SNB-19 = system: SNB-19
SR = system: SR
UO-31 = system: UO-31
MOLT-4 = system: MOLT-4
SK-MEL-5 = system: SK-MEL-5

Row | SMILES | GI50 (786-0) | GI50 (CCRF-CEM) | GI50 (COLO 205) | GI50 (HL-60) | GI50 (HT-29) | GI50 (IGROV-1) | GI50 (K562) | GI50 (NCI-H226) | GI50 (NCI-H460) | GI50 (SF-268) | GI50 (SN12C) | GI50 (SNB-19) | GI50 (SR) | GI50 (UO-31) | GI50 (MOLT-4) | GI50 (SK-MEL-5)
1 | COc1ccc(OC)c(/C=N/N=C(\N)NO)c1 | 21.4 µM (inactive) | 16.6 µM (inactive) | 10.6 µM (inactive) | 25.4 µM (inactive) | 36.6 µM (inactive) | 29.6 µM (inactive) | 6.81 µM (inactive) | 16.6 µM (inactive) | 15 µM (inactive) | 23.3 µM (inactive) | 31.4 µM (inactive) | 88.7 µM (inactive) | 45.2 µM (inactive) | 14.2 µM (inactive) | – | –
2 | c1ccc(C(c2ccccc2)c2ccncc2)cc1 | > 100 µM (inactive) | > 100 µM (inactive) | > 100 µM (inactive) | – | 75.9 µM (inactive) | > 100 µM (inactive) | > 100 µM (inactive) | > 100 µM (inactive) | > 100 µM (inactive) | > 100 µM (inactive) | > 100 µM (inactive) | > 100 µM (inactive) | – | 69.5 µM (inactive) | > 100 µM (inactive) | > 100 µM (inactive)
3 | OC1(C(Sc2ccccc2)Sc2ccccc2)CCCCCC1 | 22.4 µM (inactive) | 25.2 µM (inactive) | 23.6 µM (inactive) | 24 µM (inactive) | – | – | > 10 µM (inactive) | – | 28.2 µM (inactive) | 33.1 µM (inactive) | 16.2 µM (inactive) | 14.1 µM (inactive) | 20.8 µM (inactive) | 3.13 µM (inactive) | 28.6 µM (inactive) | 16.1 µM (inactive)
4 | Cc1cc(C)nc(NS(=O)(=O)c2ccc(Nc3c4ccccc4nc4c(C(=O)Nc5ccc(S(N)(=O)=O)cc5)cccc34)cc2)n1 | > 100 µM (inactive) | > 100 µM (inactive) | > 100 µM (inactive) | – | > 100 µM (inactive) | > 100 µM (inactive) | 72.4 µM (inactive) | – | 88.1 µM (inactive) | 50.9 µM (inactive) | > 100 µM (inactive) | 47 µM (inactive) | – | 37 µM (inactive) | > 100 µM (inactive) | > 100 µM (inactive)
5 | Cc1ccccc1NC(=O)C(=O)C(C(=O)c1ccccc1F)C1OC(=O)c2ccccc21 (configuration not stated) | 16.3 µM (inactive) | 10.6 µM (inactive) | 21.3 µM (inactive) | 16.3 µM (inactive) | 40.3 µM (inactive) | – | 24.3 µM (inactive) | 3.38 µM (inactive) | 32.9 µM (inactive) | 18.9 µM (inactive) | 25 µM (inactive) | 10.1 µM (inactive) | – | 15.8 µM (inactive) | 9.59 µM (inactive) | 22.4 µM (inactive)
6 | CC(C)(C)c1ccc(OCCOCCOc2ccc(C(C)(C)C)cc2S(=O)(=O)Nc2ccc([N+](=O)[O-])cc2)c(S(=O)(=O)Nc2ccc([N+](=O)[O-])cc2)c1 | 45.6 µM (inactive) | 5.42 µM (inactive) | 21.8 µM (inactive) | 5.58 µM (inactive) | 7.38 µM (inactive) | 12.7 µM (inactive) | 6.21 µM (inactive) | 47.8 µM (inactive) | 8.85 µM (inactive) | 8.45 µM (inactive) | 7.19 µM (inactive) | 76.4 µM (inactive) | – | 4.45 µM (inactive) | 3.01 µM (inactive) | 6.17 µM (inactive)
7 | CC(=O)OC1CCC2C(=CCC3C2(C)C(=O)CC2(C)C(C4(C)OC(C(C)C)=CC4=O)C(O)CC32C)C1(C)C (configuration not stated) | > 100 µM (inactive) | 31 µM (inactive) | 56 µM (inactive) | – | 17.8 µM (inactive) | 62.4 µM (inactive) | 35.5 µM (inactive) | 75 µM (inactive) | 27 µM (inactive) | 28.1 µM (inactive) | 54.5 µM (inactive) | > 100 µM (inactive) | 28.4 µM (inactive) | 40.3 µM (inactive) | 32.4 µM (inactive) | 23.5 µM (inactive)
8 | CC(O)C(NC(=O)c1ccccc1)C(=O)N(Cc1ccccc1)Cc1ccccc1 (configuration not stated) | > 100 µM (inactive) | > 100 µM (inactive) | > 100 µM (inactive) | 18.9 µM (inactive) | > 10 µM (inactive) | > 100 µM (inactive) | 97.9 µM (inactive) | > 100 µM (inactive) | > 100 µM (inactive) | > 100 µM (inactive) | > 100 µM (inactive) | > 100 µM (inactive) | – | > 100 µM (inactive) | 61.4 µM (inactive) | 60 µM (inactive)
9 | O=C(Nc1ccccc1[N+](=O)[O-])C(=O)C(C(=O)c1ccccc1-c1ccccc1)C1OC(=O)c2ccccc21 (configuration not stated) | 14.7 µM (inactive) | 13.5 µM (inactive) | 16.1 µM (inactive) | 14.7 µM (inactive) | 24 µM (inactive) | 23.7 µM (inactive) | 17.2 µM (inactive) | 6.1 µM (inactive) | 15.9 µM (inactive) | 14.3 µM (inactive) | 14.6 µM (inactive) | 13.6 µM (inactive) | 8.43 µM (inactive) | 15.6 µM (inactive) | 16 µM (inactive) | 18 µM (inactive)
10 | Cc1ccc(Sc2ccccc2N)cc1 | 29.2 µM (inactive) | 23.2 µM (inactive) | 40 µM (inactive) | 18.9 µM (inactive) | 31.1 µM (inactive) | 37.7 µM (inactive) | 37.4 µM (inactive) | 17.5 µM (inactive) | 30.4 µM (inactive) | 21 µM (inactive) | 41.1 µM (inactive) | 38.6 µM (inactive) | – | 12.8 µM (inactive) | 18.4 µM (inactive) | 20.7 µM (inactive)
11 | CCOC(=O)NC/C=C/CO | > 100 µM (inactive) | > 100 µM (inactive) | > 100 µM (inactive) | > 100 µM (inactive) | – | > 100 µM (inactive) | > 100 µM (inactive) | > 100 µM (inactive) | > 100 µM (inactive) | > 100 µM (inactive) | > 100 µM (inactive) | > 100 µM (inactive) | > 100 µM (inactive) | > 100 µM (inactive) | > 100 µM (inactive) | > 100 µM (inactive)
12 | O=C(Nc1nc2ncn(CCI)c2c(=O)[nH]1)c1ccccc1 | 46.1 µM (inactive) | > 100 µM (inactive) | > 100 µM (inactive) | > 100 µM (inactive) | > 100 µM (inactive) | > 100 µM (inactive) | > 100 µM (inactive) | 23.4 µM (inactive) | > 100 µM (inactive) | 21.5 µM (inactive) | 59.3 µM (inactive) | 41.9 µM (inactive) | > 100 µM (inactive) | > 90.4 µM (inactive) | > 100 µM (inactive) | > 100 µM (inactive)
13 | Cc1cc2occ(-c3ccc(Cl)cc3)c2c(=O)o1 | > 100 µM (inactive) | > 100 µM (inactive) | > 100 µM (inactive) | > 100 µM (inactive) | > 100 µM (inactive) | > 100 µM (inactive) | > 100 µM (inactive) | > 100 µM (inactive) | > 100 µM (inactive) | > 100 µM (inactive) | > 100 µM (inactive) | > 100 µM (inactive) | 38.1 µM (inactive) | 58.1 µM (inactive) | 67.9 µM (inactive) | > 100 µM (inactive)
14 | CC(Oc1ccc(OCC2CCCCC2)cc1)C(=O)O (configuration not stated) | > 100 µM (inactive) | > 100 µM (inactive) | – | > 100 µM (inactive) | > 100 µM (inactive) | > 100 µM (inactive) | > 100 µM (inactive) | > 100 µM (inactive) | > 100 µM (inactive) | > 100 µM (inactive) | > 100 µM (inactive) | – | – | > 100 µM (inactive) | > 100 µM (inactive) | > 100 µM (inactive)
15 | CCc1cccc(C(C)C)c1NC(=O)CCl | > 100 µM (inactive) | 37.1 µM (inactive) | – | 22.4 µM (inactive) | > 100 µM (inactive) | > 100 µM (inactive) | > 100 µM (inactive) | > 100 µM (inactive) | – | > 100 µM (inactive) | > 100 µM (inactive) | 28.1 µM (inactive) | 71.4 µM (inactive) | > 100 µM (inactive) | > 100 µM (inactive) | –
16 | N#CC(C(=O)C(=O)Nc1c(Cl)cccc1Cl)c1ccccc1 (configuration not stated) | > 10 µM (inactive) | > 10 µM (inactive) | > 10 µM (inactive) | > 10 µM (inactive) | > 10 µM (inactive) | > 10 µM (inactive) | > 10 µM (inactive) | > 10 µM (inactive) | > 10 µM (inactive) | > 10 µM (inactive) | > 10 µM (inactive) | > 10 µM (inactive) | > 10 µM (inactive) | > 10 µM (inactive) | > 10 µM (inactive) | > 10 µM (inactive)
17 | COc1ccccc1/C=C(\NC(=O)c1ccccc1)c1nc2ccccc2[nH]1 | 40.1 µM (inactive) | 40.6 µM (inactive) | 28.8 µM (inactive) | – | 44.1 µM (inactive) | 32.8 µM (inactive) | 32.9 µM (inactive) | – | 50.8 µM (inactive) | 37.3 µM (inactive) | 48.8 µM (inactive) | 34 µM (inactive) | – | 63.8 µM (inactive) | 36.7 µM (inactive) | 23.3 µM (inactive)
18 | CCN(CCCl)CCCNc1c2ccccc2nc2ccc(OC)cc12 | 0.114 µM (active) | 0.0993 µM (active) | 0.0964 µM (active) | 0.039 µM (active) | 0.0853 µM (active) | 0.102 µM (active) | 0.0861 µM (active) | 0.0678 µM (active) | 0.0802 µM (active) | 0.122 µM (active) | 0.0548 µM (active) | 1.05 µM (active) | 0.0158 µM (active) | 1.29 µM (inactive) | 0.0158 µM (active) | 0.388 µM (active)
19 | COc1cc(/C=C/c2ccncc2)cc(OC)c1OC | 72.4 µM (inactive) | 42.9 µM (inactive) | > 100 µM (inactive) | 24.6 µM (inactive) | 64.3 µM (inactive) | 74.6 µM (inactive) | 52.7 µM (inactive) | > 100 µM (inactive) | > 100 µM (inactive) | > 100 µM (inactive) | 96.2 µM (inactive) | > 100 µM (inactive) | – | 24.4 µM (inactive) | 65.8 µM (inactive) | 63.2 µM (inactive)
